Results as given in article PMC9411704, “Assessment of the Carcinogenic Potential of Pretomanid in Transgenic Tg.rasH2 Mice” (International Journal of Toxicology, 2022).
Read-outs that look alike come from different tables or passages of the source.

Experiments:
Escherichia coli WP2uvrA = assay: Bacterial reverse mutation (Ames) assay, plate incorporation
Description: (§1) Pretomanid and metabolite M50 were evaluated over a range of concentrations, with and without an added metabolic activation system, in five tester strains: Salmonella typhimurium histidine auxotrophs TA98, TA100, TA1535, and TA1537 [9] and the Escherichia coli tryptophan auxotroph WP2uvrA. S. typhimurium strains were received from Dr. Bruce Ames, Department of Biochemistry, University of California (Berkeley, CA). The E. coli strain was received from The National Collection of Industrial Bacteria, Torrey Research Station, Aberdeen, Scotland (United Kingdom). The metabolic activation system was a liver homogenate (S9) mix. The S9 component was prepared from male Sprague-Dawley rats that had been injected (intraperitoneally) with Aroclor^TM 1254 at 500 mg/kg, 5 days before sacrifice. The S9 mix was prepared immediately before use and contained 10% S9, 5 mM glucose-6-phosphate, 4 mM β-nicotinamide adenine dinucleotide phosphate, 8 mM MgCl2 and 33 mM KCl in a 100 mM phosphate buffer at pH 7.4. Pretomanid was tested at 0.05 to 5000 μg/plate. Metabolite M50 was tested at 78 to 2500 μg/plate. A negative (solvent) control culture and appropriate positive control cultures were included in each assay.
(§2) Bacteria were exposed to test materials by the plate incorporation method originally described by Ames et al and updated by Maron and Ames. Bottom agar was Vogel-Bonner minimal medium E [12] with 1.5% (w/v) agar, and the top Agar was 0.7% (w/v) agar and 0.5% (w/v) NaCl. After incubation, cultures were evaluated using a dissecting microscope for precipitation or cytotoxicity, and revertant colonies were counted. The mean numbers of revertant colonies in various cultures were compared to reach conclusions about assay validity and mutagenic potential. For the test article to be evaluated positive, it must cause a dose-related increase in the mean revertants per plate of at least one tester strain with a minimum of two increasing concentrations of test article.

[1] = tested on: Salmonella typhimurium TA98; assay: as above; format: cell-based
Description: as §1, §2

[2] = tested on: Salmonella typhimurium TA100; assay: as above; format: cell-based
Description: as §1, §2

[3] = tested on: Salmonella typhimurium TA1537; assay: as above; format: cell-based
Description: as §1, §2

[4] = tested on: Salmonella typhimurium TA1535; assay: as above; format: cell-based
Description: as §1, §2

[5] = Toxicokinetic assessment in wild-type CByB6F1 mice (Day 14); format: in vivo
Description: TK animals were included for the vehicle control (n = 4 sex) and pretomanid-treated groups (n = 10 sex/group). The TK cohort animals were dosed by oral gavage once daily for 14 consecutive days.
Toxicokinetic blood samples (300 μL for males and 250 μL for females) were collected in K3EDTA tubes after 14 doses from the TK cohort via retro-orbital bleeding under 70% CO2/30% O2 anesthesia. On Day 14, control mice were bled once 2 hours after dosing. On Day 14 and 15, Pretomanid-treated mice were bled predose, 0.5, 1, 3, 6, and 24 hours post dose. TK animals were euthanized after their final blood collection.
Collected blood was stored on wet ice until the samples were processed to plasma. Blood samples were centrifuged at 4±2°C and 8000 g for 5 minutes. Plasma was snap frozen in liquid nitrogen and stored in a deep freezer (≤−60°C) within 60 minutes of bleeding the TK animals.
Pretomanid and the M50 metabolite were quantified in mouse plasma by liquid chromatography-tandem mass spectrometry (LC-MS/MS) after protein precipitation. Aliquots of 25 µL of plasma were spiked with internal standards (PA-824-d5 or morphine) and proteins were precipitated in 1% formic acid in acetonitrile. A partial supernatant from each sample was transferred to a clean plate and diluted in acetonitrile/water (40:60) for pretomanid and deionized water for M50. Supernatant was analyzed for pretomanid or M50 using validated LC-MS/MS methods with a linear range of 20 to 10,000 ng/mL for pretomanid and 10 to 5,000 ng/mL for M50 (methods validated at Alliance Pharma, Malvern PA).
Sample collection time and plasma concentration data were analyzed to derive TK parameters by standard model independent methods based on the mean plasma concentration-time data for each dose group. The TK analyses of the plasma concentration profiles were performed using non-compartmental analysis in Phoenix WinNonlin Professional 7.0 (Certara, L.P., St. Louis, MO, USA). Concentration values below the lower limit of quantitation were treated as zeros for analysis purposes.

[6] = tested on: Salmonella typhimurium TA98, TA100, TA1535, TA1537 and Escherichia coli WP2uvrA; assay: Bacterial reverse mutation (Ames) assay, overall over five tester strains; format: cell-based; conditions: up to 5000 μg/plate
Description: as §1, §2

Compound: O=[N+]([O-])c1cn2c(n1)OC[C@@H](OCc1ccc(OC(F)(F)F)cc1)C2 [Pretomanid, (6S)-2-nitro-6-{[4-(trifluoromethoxy)benzyl]oxy}-6,7-dihydro-5H-imidazo[2,1-b][1,3]oxazine]
- Mean Number of Revertants/Plate (Escherichia coli WP2uvrA; WP2uvrA +S9, 100 μg/plate): 16 Revertants/Plate
- Mean Number of Revertants/Plate (Escherichia coli WP2uvrA; WP2uvrA +S9, 333 μg/plate): 17 Revertants/Plate
- Mean Number of Revertants/Plate (Escherichia coli WP2uvrA; WP2uvrA +S9, 1000 μg/plate): 15 Revertants/Plate
- Mean Number of Revertants/Plate (Escherichia coli WP2uvrA; WP2uvrA +S9, 3333 μg/plate): 10 Revertants/Plate
- Mean Number of Revertants/Plate (Escherichia coli WP2uvrA; WP2uvrA +S9, 5000 μg/plate): 14 Revertants/Plate
- Mean Number of Revertants/Plate (Escherichia coli WP2uvrA; WP2uvrA −S9, 100 μg/plate): 23 Revertants/Plate
- Mean Number of Revertants/Plate (Escherichia coli WP2uvrA; WP2uvrA −S9, 333 μg/plate): 21 Revertants/Plate
- Mean Number of Revertants/Plate (Escherichia coli WP2uvrA; WP2uvrA −S9, 1000 μg/plate): 17 Revertants/Plate
- Mean Number of Revertants/Plate (Escherichia coli WP2uvrA; WP2uvrA −S9, 3333 μg/plate): 11 Revertants/Plate
- Mean Number of Revertants/Plate (Escherichia coli WP2uvrA; WP2uvrA −S9, 5000 μg/plate): 16 Revertants/Plate
- Mean Number of Revertants/Plate ([1]; TA98 +S9, 100 μg/plate): 22 Revertants/Plate
- Mean Number of Revertants/Plate ([1]; TA98 +S9, 333 μg/plate): 26 Revertants/Plate
- Mean Number of Revertants/Plate ([1]; TA98 +S9, 1000 μg/plate): 23 Revertants/Plate
- Mean Number of Revertants/Plate ([1]; TA98 +S9, 3333 μg/plate): 16 Revertants/Plate
- Mean Number of Revertants/Plate ([1]; TA98 +S9, 5000 μg/plate): 22 Revertants/Plate
- Mean Number of Revertants/Plate ([1]; TA98 −S9, 100 μg/plate): 25 Revertants/Plate
- Mean Number of Revertants/Plate ([1]; TA98 −S9, 333 μg/plate): 12 Revertants/Plate
- Mean Number of Revertants/Plate ([1]; TA98 −S9, 1000 μg/plate): 18 Revertants/Plate
- Mean Number of Revertants/Plate ([1]; TA98 −S9, 3333 μg/plate): 17 Revertants/Plate
- Mean Number of Revertants/Plate ([1]; TA98 −S9, 5000 μg/plate): 15 Revertants/Plate
- Mean Number of Revertants/Plate ([2]; TA100 +S9, 100 μg/plate): 137 Revertants/Plate
- Mean Number of Revertants/Plate ([2]; TA100 +S9, 333 μg/plate): 179 Revertants/Plate
- Mean Number of Revertants/Plate ([2]; TA100 +S9, 1000 μg/plate): 173 Revertants/Plate
- Mean Number of Revertants/Plate ([2]; TA100 +S9, 3333 μg/plate): 166 Revertants/Plate
- Mean Number of Revertants/Plate ([2]; TA100 +S9, 5000 μg/plate): 179 Revertants/Plate
- Mean Number of Revertants/Plate ([2]; TA100 −S9, 100 μg/plate): 119 Revertants/Plate
- Mean Number of Revertants/Plate ([2]; TA100 −S9, 333 μg/plate): 107 Revertants/Plate
- Mean Number of Revertants/Plate ([2]; TA100 −S9, 1000 μg/plate): 115 Revertants/Plate
- Mean Number of Revertants/Plate ([2]; TA100 −S9, 3333 μg/plate): 99 Revertants/Plate
- Mean Number of Revertants/Plate ([2]; TA100 −S9, 5000 μg/plate): 106 Revertants/Plate
- Mean Number of Revertants/Plate ([3]; TA1537 +S9, 100 μg/plate): 9 Revertants/Plate
- Mean Number of Revertants/Plate ([3]; TA1537 +S9, 333 μg/plate): 6 Revertants/Plate
- Mean Number of Revertants/Plate ([3]; TA1537 +S9, 1000 μg/plate): 5 Revertants/Plate
- Mean Number of Revertants/Plate ([3]; TA1537 +S9, 3333 μg/plate): 5 Revertants/Plate
- Mean Number of Revertants/Plate ([3]; TA1537 +S9, 5000 μg/plate): 4 Revertants/Plate
- Mean Number of Revertants/Plate ([3]; TA1537 −S9, 100 μg/plate): 5 Revertants/Plate
- Mean Number of Revertants/Plate ([3]; TA1537 −S9, 333 μg/plate): 5 Revertants/Plate
- Mean Number of Revertants/Plate ([3]; TA1537 −S9, 1000 μg/plate): 10 Revertants/Plate
- Mean Number of Revertants/Plate ([3]; TA1537 −S9, 3333 μg/plate): 5 Revertants/Plate
- Mean Number of Revertants/Plate ([3]; TA1537 −S9, 5000 μg/plate): 5 Revertants/Plate
- Mean Number of Revertants/Plate ([4]; TA1535 +S9, 100 μg/plate): 12 Revertants/Plate
- Mean Number of Revertants/Plate ([4]; TA1535 +S9, 333 μg/plate): 13 Revertants/Plate
- Mean Number of Revertants/Plate ([4]; TA1535 +S9, 1000 μg/plate): 10 Revertants/Plate
- Mean Number of Revertants/Plate ([4]; TA1535 +S9, 3333 μg/plate): 11 Revertants/Plate
- Mean Number of Revertants/Plate ([4]; TA1535 +S9, 5000 μg/plate): 14 Revertants/Plate
- Mean Number of Revertants/Plate ([4]; TA1535 −S9, 100 μg/plate): 9 Revertants/Plate
- Mean Number of Revertants/Plate ([4]; TA1535 −S9, 333 μg/plate): 10 Revertants/Plate
- Mean Number of Revertants/Plate ([4]; TA1535 −S9, 1000 μg/plate): 10 Revertants/Plate
- Mean Number of Revertants/Plate ([4]; TA1535 −S9, 3333 μg/plate): 8 Revertants/Plate
- Mean Number of Revertants/Plate ([4]; TA1535 −S9, 5000 μg/plate): 7 Revertants/Plate
- AUC(0-t) ([5]; CByB6F1 (wild-type), mouse, female, pretomanid 10 mg/kg/day oral, Day 14, plasma, read-out: Pretomanid AUC0-24): 24900 ng·h/mL
- Cmax ([5]; CByB6F1 (wild-type), mouse, female, pretomanid 30 mg/kg/day oral, Day 14, plasma): 6900 ng/mL
- AUC(0-t) ([5]; CByB6F1 (wild-type), mouse, female, pretomanid 30 mg/kg/day oral, Day 14, plasma, read-out: Pretomanid AUC0-24): 87500 ng·h/mL
- Cmax ([5]; CByB6F1 (wild-type), mouse, female, pretomanid 80 mg/kg/day oral, Day 14, plasma): 16200 ng/mL
- AUC(0-t) ([5]; CByB6F1 (wild-type), mouse, female, pretomanid 80 mg/kg/day oral, Day 14, plasma, read-out: Pretomanid AUC0-24): 186000 ng·h/mL
- Exposure to pretomanid relative to exposure to the M50 metabolite ([5]; Day 14, all dose levels, both sexes): more than 10 times
- AUC(0-t) ([5]; both sexes, CByB6F1 (wild-type), mouse, plasma, oral, high dose (40 male, 80 female mg/kg/day), read-out: Gender averaged mouse AUC0-24 of pretomanid): 149000 ng·h/mL
- Cmax ([5]; wild-type CByB6F1, mouse, female, pretomanid 10 mg/kg/day oral, Day 14, plasma): 2900 ng/mL
- Cmax ([5]; wild-type CByB6F1, mouse, male, pretomanid 5 mg/kg/day oral, Day 14, plasma): 1800 ng/mL
- AUC(0-t) ([5]; wild-type CByB6F1, mouse, male, pretomanid 5 mg/kg/day oral, Day 14, plasma, read-out: Pretomanid AUC0-24): 13700 ng·h/mL
- Cmax ([5]; wild-type CByB6F1, mouse, male, pretomanid 15 mg/kg/day oral, Day 14, plasma): 4900 ng/mL
- AUC(0-t) ([5]; wild-type CByB6F1, mouse, male, pretomanid 15 mg/kg/day oral, Day 14, plasma, read-out: Pretomanid AUC0-24): 50800 ng·h/mL
- Cmax ([5]; wild-type CByB6F1, mouse, male, pretomanid 40 mg/kg/day oral, Day 14, plasma): 10400 ng/mL
- AUC(0-t) ([5]; wild-type CByB6F1, mouse, male, pretomanid 40 mg/kg/day oral, Day 14, plasma, read-out: Pretomanid AUC0-24): 112000 ng·h/mL
- Change in number of revertant colonies ([6]; any tester strain under any conditions): did not cause a significant increase
- Cytotoxicity in the Ames assay [6]: no appreciable cytotoxicity
- Mutagenic potential ([6]; with and without S9): negative
